Read-outs that look alike come from different tables or passages of the source.
How the values were obtained:
[1] = even down to pH 3; cited from earlier work
[2] = test system: endogenous canine peroxidase; settings: 100 μmol per liter sodium azide, whole canine blood, 10 minutes
Experimental: (§1) SLF5 glass fiber discs, 6.4 mm diameter (Whatman, Inc.) were sensitized with 13 μL of 1 mg/mL rabbit anti-heartworm antibody containing 0.7% sodium bicarbonate, 2% sucrose, and 30 μg/mL FDC Blue 1 dye. Heartworm antibody can be produced from heartworm antigen prepared by disrupting a parasitic worm in an aqueous buffer solution, centrifuging to remove insoluble and particulate components, adding of trichloroacetic acid to a concentration of 15% w/v, centrifuging to remove insoluble components, dialyzing against an aqueous buffer solution and lyophilizing. This antigen preparation is used to produce antibodies in mammals using standard methods (see, e.g., Harlow, E. and D. Lane, 1988, “Antibodies: A Laboratory manual”, Cold Spring Harbor Laboratory, Cod Spring Harbor, N.Y., USA, ISBN 0-87969-314-2 pp 92-286).
(§2) The discs were washed with buffer containing, per liter, 25 mmol of 3-(N-morpholino)-2-hydroxypropane sulfonic acid MOPSO, 100 mmol of NaCl, 1 g of Brij® 35 and 1 g of tetrasodium EDTA, pH 7.4. Two 15 μL drops of a mixture of 100 μL of whole canine blood containing 950 eosinophils per μL (normal range: 100-1500 eosinophils per μL), 0.5%-25% v/v of heartworm extract in fetal bovine serum and 25 μL of 100 μg/mL of chicken anti-heartworm HRP-conjugated antibody was added to the glass fiber disc and allowed to incubate for 5 minutes at 23C. The discs were washed with a buffered bland protein solution containing 1% Triton X-100 and transferred to polystyrene microwells.
(§3) A peroxidase substrate containing 100 μmol per liter of sodium azide, was added to the discs and allowed to incubate for 10 minutes, after which time the amount of blue color produced was measured by bichromatic absorbance at 650 nm-562 nm, compensating the background contribution from the glass fiber matrix. Duplicate discs were also processed in an identical manner except these were incubated instead with the peroxidase substrate but lacking in azide.

[3] = Experimental: Above pH 6 the activity of some peroxidase substrates declines. […] Incubation times longer than 30 minutes have not been very useful in peroxidase-based analysis due to substrate evaporation and gradual inactivation of peroxidase by peroxide, which occurs naturally after a limited number of catalytic cycles.
[4] = molecular target: T1, HRP (Armoracia rusticana, UniProt P00433); settings: for effect on assay sensitivity: both substrates (TMBlue, TMBM); for 50 μM azide (mA) / 100 μM azide (mA) / 500 μM Azide (mA): serum
T1 sequence (P00433 31-338): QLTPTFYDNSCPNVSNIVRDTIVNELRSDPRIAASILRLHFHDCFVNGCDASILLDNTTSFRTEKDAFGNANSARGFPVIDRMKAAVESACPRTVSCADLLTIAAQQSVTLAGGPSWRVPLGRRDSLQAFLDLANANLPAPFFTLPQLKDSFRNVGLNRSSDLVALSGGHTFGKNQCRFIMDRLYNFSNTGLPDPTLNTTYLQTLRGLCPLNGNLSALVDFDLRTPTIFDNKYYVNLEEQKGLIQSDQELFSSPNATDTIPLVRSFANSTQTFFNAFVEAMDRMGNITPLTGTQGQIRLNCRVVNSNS
Experimental: as §1, §2, §3
The TMBlue® substrate was incubated with the glass fiber discs for 3 minutes and TMBM substrate was incubated for 15 minutes until bichromatic measurement at 650 mn-562 nm.

[5] = molecular target: MPO (Homo sapiens, UniProt P05164)
MPO, sequence (P05164 279-745 limits assumed): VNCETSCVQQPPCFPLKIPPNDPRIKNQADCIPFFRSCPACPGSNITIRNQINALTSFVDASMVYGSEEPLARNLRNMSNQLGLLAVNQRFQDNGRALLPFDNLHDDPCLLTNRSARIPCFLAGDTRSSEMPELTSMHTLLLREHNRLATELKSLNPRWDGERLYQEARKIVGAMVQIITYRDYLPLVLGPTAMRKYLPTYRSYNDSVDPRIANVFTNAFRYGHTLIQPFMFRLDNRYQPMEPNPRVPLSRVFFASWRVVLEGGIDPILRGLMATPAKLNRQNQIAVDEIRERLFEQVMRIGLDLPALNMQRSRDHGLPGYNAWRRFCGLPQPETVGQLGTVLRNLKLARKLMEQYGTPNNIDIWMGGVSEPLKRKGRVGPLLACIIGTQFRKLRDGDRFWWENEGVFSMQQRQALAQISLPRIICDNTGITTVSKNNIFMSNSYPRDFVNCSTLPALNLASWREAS
MPO, sequence (P05164 165-273 limits assumed): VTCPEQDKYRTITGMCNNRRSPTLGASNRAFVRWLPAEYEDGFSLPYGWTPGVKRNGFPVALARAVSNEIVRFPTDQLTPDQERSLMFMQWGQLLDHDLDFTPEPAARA
Experimental: (§4) Assays were run to determine the selectivity of azide for interference from EPO, MPO and hemoglobin. Activities were measured in solution using a peroxidase substrate consisting of, per liter, 1.4 mmol of TMB, 0.3 mmol of hydrogen peroxide, 20 mmol of sodium chloride, 30 mg of Triton X-100, and 100 g of sucrose. HRP was a conjugate of chicken antibody (used in Example 1). MPO and EPO were essentially homogeneous commercial preparations isolated from human leukocytes. Hemoglobin (Hgb) was obtained as a Triton X-100 lysate of feline erythrocytes.

[6] = molecular target: EPO (Homo sapiens, UniProt P11678)
EPO, sequence (P11678 251-715 limits assumed): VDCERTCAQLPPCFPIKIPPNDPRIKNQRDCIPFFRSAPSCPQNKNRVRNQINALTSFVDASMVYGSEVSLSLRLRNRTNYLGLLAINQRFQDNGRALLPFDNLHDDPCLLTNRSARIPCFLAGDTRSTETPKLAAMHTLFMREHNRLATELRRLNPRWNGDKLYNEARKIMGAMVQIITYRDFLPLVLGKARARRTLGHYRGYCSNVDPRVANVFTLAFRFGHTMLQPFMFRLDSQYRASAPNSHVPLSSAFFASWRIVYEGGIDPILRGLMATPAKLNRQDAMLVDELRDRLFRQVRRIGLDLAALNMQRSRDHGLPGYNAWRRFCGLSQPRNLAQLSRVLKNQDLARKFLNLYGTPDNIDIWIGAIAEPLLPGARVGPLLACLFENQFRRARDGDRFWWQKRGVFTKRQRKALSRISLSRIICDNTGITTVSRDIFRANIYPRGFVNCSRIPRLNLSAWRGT
EPO, sequence (P11678 140-250 limits assumed): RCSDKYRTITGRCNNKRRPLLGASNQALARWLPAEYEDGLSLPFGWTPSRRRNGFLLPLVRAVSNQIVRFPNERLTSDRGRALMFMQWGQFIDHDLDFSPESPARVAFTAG
Experimental: as §4

[7] = molecular target: Hemoglobin (Hgb) (Felis catus, UniProt P07405+P07412)
Hemoglobin (Hgb), sequence (P07405 whole entry): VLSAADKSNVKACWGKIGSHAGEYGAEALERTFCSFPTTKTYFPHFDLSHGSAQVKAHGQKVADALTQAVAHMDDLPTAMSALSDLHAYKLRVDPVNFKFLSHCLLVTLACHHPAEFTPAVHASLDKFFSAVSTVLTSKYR
Hemoglobin (Hgb), sequence (P07412 whole entry): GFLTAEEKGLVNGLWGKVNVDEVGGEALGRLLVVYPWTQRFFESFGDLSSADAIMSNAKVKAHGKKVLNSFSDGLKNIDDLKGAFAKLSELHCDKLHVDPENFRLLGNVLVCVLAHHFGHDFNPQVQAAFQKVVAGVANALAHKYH
Experimental: as §4

[8] = molecular target: T1, HRP
Experimental: as §4

[9] = TMBM substrate, 15 minutes, heartworm antigen 0%
[10] = TMBM substrate, 15 minutes, heartworm antigen 5%
[11] = TMBM substrate, 15 minutes, heartworm antigen 10%
[12] = TMBM substrate, 15 minutes, heartworm antigen 25%
[13] = TMBM substrate, 15 minutes, heartworm antigen 50%
[14] = TMBM substrate, 15 minutes, heartworm antigen 100%
[15] = TMBlue substrate, 3 minutes, heartworm antigen 0%
[16] = TMBlue substrate, 3 minutes, heartworm antigen 5%
[17] = TMBlue substrate, 3 minutes, heartworm antigen 10%
[18] = TMBlue substrate, 3 minutes, heartworm antigen 25%
[19] = TMBlue substrate, 3 minutes, heartworm antigen 50%
[20] = TMBlue substrate, 3 minutes, heartworm antigen 100%

**Q.** With `[N-]=[N+]=[N-].[Na+]` [azide, sodium azide] as the molecule, how does the “loss of azide from closed containers” value [1] read?
**A.** The value was “no azide is lost”.

**Q.** And the “azide added mA650-562” value ([2]; antigen 0%)?
**A.** The value was 118 mA.

**Q.** What about the “azide added mA650-562” value ([2]; antigen 0.5%) of the same molecule?
**A.** Its value is 97 mA.

**Q.** And the “azide added mA650-562” value ([2]; antigen 1%)?
**A.** Its value is 123 mA.

**Q.** What about the “azide added mA650-562” value ([2]; antigen 2.5%) of the same molecule?
**A.** The value was 147 mA.

**Q.** What about the “azide added mA650-562” value ([2]; antigen 5%) of the same molecule?
**A.** The value was 149 mA.

**Q.** What about the “azide added mA650-562” value ([2]; antigen 10%) of the same molecule?
**A.** Its value is 179 mA.

**Q.** What about the “azide added mA650-562” value ([2]; antigen 25%) of the same molecule?
**A.** The value was 305 mA.

**Q.** What about the “fraction of azide that evaporates” value ([3]; microwell, 100 μL of 5 mM azide in succinate buffer, below pH 4.5, less than a half hour) of the same molecule?
**A.** The value was “One-half to two-thirds”.

**Q.** What about the “fraction of azide lost” value ([3]; microwell, 100 μL of 5 mM azide in succinate buffer, pH 5.0) of the same molecule?
**A.** Its value is “one-third”.

**Q.** What about the loss of azide ([3]; pH 5.5 and above, over a half hour) of the same molecule?
**A.** Its loss of azide is “no significant loss”.

**Q.** And the “effect on assay sensitivity” value ([4]; 500 μM azide)?
**A.** Its value is “the decrease in sensitivity is not severe”.

**Q.** What about the “50 μM azide (mA)” value [4, 9] of the same molecule?
**A.** The value was 46 mA.

**Q.** And the “50 μM azide (mA)” value [4, 10]?
**A.** Its value is 138 mA.

**Q.** And the “50 μM azide (mA)” value [4, 11]?
**A.** Its value is 196 mA.

**Q.** What about the “50 μM azide (mA)” value [4, 12] of the same molecule?
**A.** The value was 264 mA.

**Q.** What about the “50 μM azide (mA)” value [4, 13] of the same molecule?
**A.** The value was 535 mA.

**Q.** And the “50 μM azide (mA)” value [4, 14]?
**A.** Its value is 776 mA.

**Q.** And the “100 μM azide (mA)” value [4, 9]?
**A.** The value was 73 mA.

**Q.** And the “100 μM azide (mA)” value [4, 10]?
**A.** Its value is 123 mA.

**Q.** And the “100 μM azide (mA)” value [4, 11]?
**A.** The value was 197 mA.

**Q.** And the “100 μM azide (mA)” value [4, 12]?
**A.** Its value is 324 mA.

**Q.** And the “100 μM azide (mA)” value [4, 13]?
**A.** The value was 511 mA.

**Q.** What about the “100 μM azide (mA)” value [4, 14] of the same molecule?
**A.** The value was 800 mA.

**Q.** And the “500 μM Azide (mA)” value ([4]; TMBM substrate, 15 minutes, 500 μM azide, heartworm antigen 0%)?
**A.** The value was 37 mA.

**Q.** And the “500 μM Azide (mA)” value ([4]; TMBM substrate, 15 minutes, 500 μM azide, heartworm antigen 5%)?
**A.** The value was 70 mA.

**Q.** What about the “500 μM Azide (mA)” value ([4]; TMBM substrate, 15 minutes, 500 μM azide, heartworm antigen 10%) of the same molecule?
**A.** Its value is 112 mA.

**Q.** What about the “500 μM Azide (mA)” value ([4]; TMBM substrate, 15 minutes, 500 μM azide, heartworm antigen 25%) of the same molecule?
**A.** Its value is 173 mA.

**Q.** And the “500 μM Azide (mA)” value ([4]; TMBM substrate, 15 minutes, 500 μM azide, heartworm antigen 50%)?
**A.** The value was 363 mA.

**Q.** And the “500 μM Azide (mA)” value ([4]; TMBM substrate, 15 minutes, 500 μM azide, heartworm antigen 100%)?
**A.** The value was 491 mA.

**Q.** What about the “50 μM azide (mA)” value [4, 15] of the same molecule?
**A.** Its value is 22 mA.

**Q.** What about the “50 μM azide (mA)” value [4, 16] of the same molecule?
**A.** Its value is 64 mA.

**Q.** What about the “50 μM azide (mA)” value [4, 17] of the same molecule?
**A.** Its value is 119 mA.

**Q.** And the “50 μM azide (mA)” value [4, 18]?
**A.** The value was 270 mA.

**Q.** And the “50 μM azide (mA)” value [4, 19]?
**A.** Its value is 408 mA.

**Q.** What about the “50 μM azide (mA)” value [4, 20] of the same molecule?
**A.** The value was 646 mA.

**Q.** And the “100 μM azide (mA)” value [4, 15]?
**A.** Its value is 31 mA.

**Q.** What about the “100 μM azide (mA)” value [4, 16] of the same molecule?
**A.** Its value is 110 mA.

**Q.** What about the “100 μM azide (mA)” value [4, 17] of the same molecule?
**A.** Its value is 150 mA.

**Q.** And the “100 μM azide (mA)” value [4, 18]?
**A.** Its value is 395 mA.

**Q.** What about the “100 μM azide (mA)” value [4, 19] of the same molecule?
**A.** The value was 628 mA.

**Q.** What about the “100 μM azide (mA)” value [4, 20] of the same molecule?
**A.** Its value is 1046 mA.

**Q.** And the “500 μM Azide (mA)” value ([4]; TMBlue substrate, 3 minutes, 500 μM azide, heartworm antigen 0%)?
**A.** Its value is 21 mA.

**Q.** And the “500 μM Azide (mA)” value ([4]; TMBlue substrate, 3 minutes, 500 μM azide, heartworm antigen 5%)?
**A.** Its value is 73 mA.

**Q.** And the “500 μM Azide (mA)” value ([4]; TMBlue substrate, 3 minutes, 500 μM azide, heartworm antigen 10%)?
**A.** The value was 121 mA.

**Q.** What about the “500 μM Azide (mA)” value ([4]; TMBlue substrate, 3 minutes, 500 μM azide, heartworm antigen 25%) of the same molecule?
**A.** The value was 265 mA.

**Q.** What about the “500 μM Azide (mA)” value ([4]; TMBlue substrate, 3 minutes, 500 μM azide, heartworm antigen 50%) of the same molecule?
**A.** The value was 462 mA.

**Q.** And the “500 μM Azide (mA)” value ([4]; TMBlue substrate, 3 minutes, 500 μM azide, heartworm antigen 100%)?
**A.** Its value is 734 mA.

**Q.** And the “effect on assay sensitivity” value ([4]; up to 100 μM azide)?
**A.** Its value is “does not produce a significant diminution of assay sensitivity”.

**Q.** And the “% of control activity (without azide), MPO” value ([5]; 3 μM azide)?
**A.** Its value is 63.1%.

**Q.** And the “% of control activity (without azide), MPO” value ([5]; 30 μM azide)?
**A.** The value was 15.5%.

**Q.** What about the “% of control activity (without azide), EPO” value ([6]; 3 μM azide) of the same molecule?
**A.** Its value is 13.4%.

**Q.** And the “% of control activity (without azide), EPO” value ([6]; 30 μM azide)?
**A.** Its value is 0.7%.

**Q.** And the “% of control activity (without azide), Hgb” value ([7]; 3 μM azide)?
**A.** The value was 99.7%.

**Q.** And the “% of control activity (without azide), Hgb” value ([7]; 30 μM azide)?
**A.** The value was 26.4%.

**Q.** What about the “% of control activity (without azide), HRP” value ([8]; 3 μM azide) of the same molecule?
**A.** The value was 101%.

**Q.** What about the “% of control activity (without azide), HRP” value ([8]; 30 μM azide) of the same molecule?
**A.** Its value is 83.5%.
